Test results as given in DBAASP.
In brackets after ≈: the same amount, converted by molar mass. Several values for one entry are separate records, joined by “and”; a condition that tells them apart may be missing. Equal entries are not always repeated. One block for each compound: values may come before it.

Assays:
Test in all cases: ≥ marks a high value that may be exact or a test limit, other limits are often not marked, values filed in µg/mL are converted to µM
Escherichia coli SPE 001 = system: Escherichia coli SPE 001
[1] = system: Staphylococcus aureus SPM 101
[2] = system: Enterococcus faecalis ATCC 29212
[3] = system: Staphylococcus aureus ATCC 43300
[4] = system: Staphylococcus aureus MTCC 9542
[5] = system: Bacillus subtilis MTCC 14416
Vibrio cholerae = system: Vibrio cholerae
Escherichia coli MG1655 = system: Escherichia coli MG1655
[6] = system: Pectobacterium carotovorum subsp. carotovorum DSM 30168
[7] = system: Staphylococcus aureus 90857
[8] = system: Pseudomonas syringae pv. tomato DC3000
Botrytis cinerea = system: Botrytis cinerea
[9] = system: Xanthomonas vesicatoria DSM 50861
Cladosporium herbarum = system: Cladosporium herbarum
[10] = system: Pseudomonas syringae pv. syringae DSM 10604
[11] = system: Clavibacter michiganensis subsp. michiganensis DSM 46294
[12] = system: Pseudomonas corrugata DSM 7228
Alternaria alternata = system: Alternaria alternata
[13] = system: Streptococcus pneumoniae DSM 11865
[14] = system: Escherichia coli DSM 1103
[15] = system: Pseudomonas aeruginosa DSM 1128
[16] = system: Klebsiella pneumoniae DSM 681
[17] = system: Staphylococcus aureus ATCC 25923
Methylobacterium sp. = system: Methylobacterium sp.
Xanthomonas citri = system: Xanthomonas citri
[18] = system: Sinorhizobium meliloti USDA 1002
[19] = system: Saccharomyces cerevisiae ATCC 44774
Enterococcus faecium = system: Enterococcus faecium
Enterococcus gallinarum = system: Enterococcus gallinarum
[20] = system: Escherichia coli ATCC 27325
[21] = system: Enterococcus casseliflavus
[22] = system: Bacillus subtilis KCTC 3038
[23] = system: Salmonella typhimurium KCTC 2370
Staphylococcus aureus = system: Staphylococcus aureus
[24] = system: Staphylococcus aureus ATCC 502A
[25] = system: Acinetobacter baumannii ATCC 15308
[26] = system: Pseudomonas sp. ATCC 15915
[27] = system: Enterococcus faecium ATCC 19434
[28] = system: Micrococcus luteus ATCC 7468
Escherichia coli BL2 = system: Escherichia coli BL2

Compound: CC[C@H](C)[C@H](NC(=O)[C@H](C)NC(=O)[C@H](CS)NC(=O)[C@H](Cc1ccccc1)NC(=O)[C@@H](NC(=O)[C@H](CCCCN)NC(=O)[C@@H]1CCCN1C(=O)[C@H](CC(C)C)NC(=O)[C@H](Cc1ccccc1)NC(=O)[C@H](CCCCN)NC(=O)[C@H](C)NC(=O)[C@H](C)NC(=O)[C@H](CCSC)NC(=O)CNC(=O)[C@H](C)NC(=O)[C@@H](NC(=O)[C@H](Cc1ccccc1)NC(=O)[C@@H]1CCCN1C(=O)[C@H](CC(C)C)NC(=O)[C@@H](N)Cc1ccccc1)[C@@H](C)CC)[C@@H](C)CC)C(=O)N[C@@H](CO)C(=O)N[C@@H](CCCCN)C(=O)N[C@@H](CCCCN)C(N)=O [FLPFIAGMAAKFLPKIFCAISKK]
MIC [2]: 9.83 µM (≈ 25 µg/mL)
MIC [3]: 2.46 µM (≈ 6.25 µg/mL)
MIC [4]: 9.83 µM (≈ 25 µg/mL)
MIC [5]: 9.83 µM (≈ 25 µg/mL)
MIC (Vibrio cholerae): 9.83 µM (≈ 25 µg/mL)
MIC (Escherichia coli MG1655): 7.87 µM (≈ 20 µg/mL)

Compound: CC(C)C[C@H](NC(=O)[C@@H](NC(=O)[C@H](C)NC(=O)[C@H](Cc1c[nH]c2ccccc12)NC(=O)[C@H](CCCN=C(N)N)NC(=O)CNC(=O)CNC(=O)[C@H](CCCN=C(N)N)NC(=O)[C@@H](NC(=O)[C@H](CCCN=C(N)N)NC(=O)[C@H](Cc1c[nH]c2ccccc12)NC(=O)[C@H](Cc1ccc(O)cc1)NC(=O)[C@H](Cc1ccc(O)cc1)NC(=O)[C@H](CCCCN)NC(=O)[C@H](CCC(N)=O)NC(=O)[C@@H](N)CC(C)C)C(C)C)C(C)C)C(=O)N[C@@H](CO)C(=O)O [LQKYYWRVRGGRWAVLS]
MIC [13]: ≥ 140 µM
MIC [14]: ≥ 140 µM
MIC [15]: ≥ 140 µM
MIC [16]: ≥ 140 µM
MIC [17]: 70.1 µM (≈ 150 µg/mL)

Compound: CC[C@H](C)[C@H](NC(=O)[C@H](C)NC(=O)CNC(=O)[C@H](Cc1ccccc1)NC(=O)[C@@H](NC(=O)[C@@H](N)CCCCN)[C@@H](C)CC)C(=O)N[C@@H](Cc1c[nH]c2ccccc12)C(=O)N1CCC[C@H]1C(=O)N[C@@H](CC(C)C)C(=O)N[C@@H](C)C(=O)N[C@@H](CC(C)C)C(=O)NCC(=O)N[C@@H](C)C(=O)N[C@@H](CC(C)C)C(=O)N[C@@H](CCCCN)C(=O)N[C@@H](CC(N)=O)C(=O)N[C@@H](CC(C)C)C(=O)N[C@H](C(=O)N[C@@H](CCCCN)C(=O)O)[C@@H](C)CC [KIFGAIWPLALGALKNLIK]
MIC (Methylobacterium sp.): 4 µM (≈ 8.27 µg/mL)
MIC (Xanthomonas citri): 2 µM (≈ 4.13 µg/mL)
MIC [18]: 4 µM (≈ 8.27 µg/mL)

The next lines start with the values.

MIC (Escherichia coli SPE 001): 26.5 µM (≈ 32 µg/mL)
MIC [1]: 1.65 µM (≈ 2 µg/mL)
Compound: CC(C)C[C@H](NC(=O)[C@H](CCCCN)NC(=O)[C@H](CC(C)C)NC(=O)[C@H](CC(C)C)NC(=O)[C@H](CC(C)C)NC(=O)[C@H](CC(C)C)NC(=O)[C@H](CCCCN)NC(=O)[C@H](CC(C)C)NC(=O)[C@@H](N)CCCCN)C(=O)N[C@@H](CCCCN)C(N)=O [KLKLLLLKLK]

MIC [6]: 12.9 µM (≈ 20 µg/mL)
MIC [7]: 1.5 µM (≈ 2.33 µg/mL)
MIC [8]: 6.43 µM (≈ 9.99 µg/mL)
MIC (Botrytis cinerea): ≥ 64.3 µM
MIC [9]: 3.21 µM (≈ 5 µg/mL)
MIC (Cladosporium herbarum): 6.43 µM (≈ 9.99 µg/mL)
MIC [10]: 6.43 µM (≈ 9.99 µg/mL)
MIC [11]: 6.43 µM (≈ 9.99 µg/mL)
MIC [12]: 12.9 µM (≈ 20 µg/mL)
MIC (Alternaria alternata): ≥ 64.3 µM
Compound: CC[C@H](C)[C@H](NC(=O)[C@H](CCCCN)NC(=O)[C@H](CCCCN)NC(=O)[C@H](CC(C)C)NC(=O)[C@H](Cc1ccccc1)NC(=O)[C@H](CCCN=C(N)N)NC(=O)[C@@H](N)CC(C)C)C(=O)N[C@@H](CC(C)C)C(=O)N[C@@H](CCCCN)C(=O)N[C@@H](Cc1cnc[nH]1)C(=O)N[C@@H](CC(C)C)C(=O)N[C@@H](Cc1ccccc1)C(N)=O [LRFLKKILKHLF]

MIC [2]: 4.47 µM (≈ 8 µg/mL)
MIC [19]: 1.12 µM (≈ 2 µg/mL)
MIC (Enterococcus faecium): 2.23 µM (≈ 4 µg/mL)
MIC (Enterococcus gallinarum): ≥ 35.8 µM
MIC [20]: 17.9 µM and ≥ 35.8 µM
MIC [21]: 1.12 µM (≈ 2 µg/mL)
MIC [22]: 8.94 µM (≈ 16 µg/mL)
MIC [23]: ≥ 35.8 µM
MIC (Staphylococcus aureus): > 35.8 µM
Compound: CC(C)[C@H](NC(=O)[C@H](CCCCN)NC(=O)[C@H](CCC(N)=O)NC(=O)[C@H](CCCCN)NC(=O)[C@@H](NC(=O)[C@@H](NC(=O)[C@H](CCC(N)=O)NC(=O)[C@@H](NC(=O)[C@@H](NC(=O)[C@@H]1CCCN1C(=O)[C@H](CCCN=C(N)N)NC(=O)[C@@H](NC(=O)[C@@H](NC(=O)[C@@H](N)CCCN=C(N)N)C(C)C)C(C)C)C(C)C)C(C)C)C(C)C)C(C)C)C(=O)N[C@@H](CCCN=C(N)N)C(=O)O [RVVRPVVQVVKQKVR]

MIC [24]: 10 µM (≈ 23.1 µg/mL)
MIC [25]: 10 µM (≈ 23.1 µg/mL)
MIC [26]: 10 µM (≈ 23.1 µg/mL)
MIC [27]: 10 µM (≈ 23.1 µg/mL)
MIC [28]: 10 µM (≈ 23.1 µg/mL)
MIC (Escherichia coli BL2): 10 µM (≈ 23.1 µg/mL)
Compound: CC[C@H](C)[C@H](NC(=O)[C@H](C)NC(=O)[C@H](Cc1ccccc1)NC(=O)[C@H](Cc1c[nH]c2ccccc12)NC(=O)[C@H](CCC(N)=O)NC(=O)[C@H](C)NC(=O)[C@H](CCCN=C(N)N)NC(=O)[C@@H](NC(=O)[C@H](Cc1ccccc1)NC(=O)[C@H](CCC(N)=O)NC(=O)[C@@H]1CCCN1C(=O)[C@@H]1CCCN1C(=O)[C@@H](N)CCCN=C(N)N)[C@@H](C)O)C(=O)N[C@@H](CCC(N)=O)C(=O)N[C@@H](Cc1cnc[nH]1)C(=O)N[C@H](C(=O)N[C@@H](CO)C(=O)N[C@@H](CC(C)C)C(=O)N[C@@H](CC(N)=O)C(=O)O)[C@@H](C)CC [RPPQFTRAQWFAIQHISLN]
